Measured values taken from patent publication US20030133962A1, “Pest control agent/pf 1022-221” (priority 1999, published 2003).

Tests used:
silkworms = details: known from literature (Kanaoka et al. 1979; JP 05 271 013); cited from earlier work
[1] = system: larvae of the mustard beetle (Phaedon cochleariae); test: Phaedon larvae test; format: in vivo; details: active compound concentration 1000 ppm; dipped cabbage leaves (Brassica oleracea)
Protocol: (§1) Solvent: 3 parts by weight of dimethylformamide
(§2) Emulsifier: 1 part by weight of alkylaryl polyglycol ether
(§3) To produce a suitable preparation of active compound, 1 part by weight of active compound is mixed with the stated amounts of solvent and emulsifier, and the concentrate is diluted with emulsifier-containing water to the desired concentration.
Cabbage leaves (Brassica oleracea) are treated by being dipped into the preparation of active compound of the desired concentration and populated with larvae of the mustard beetle (Phaedon cochleariae) while the leaves are still moist.
After the desired period of time, the kill in % is determined. 100% means that all beetle larvae have been killed; 0% means that none of the beetle larvae have been killed.

Meloidogyne incognita = test: Meloidogyne test; format: in vivo; details: active compound concentration 20 ppm; sand, lettuce seeds
Protocol: as §1, §2
To produce a suitable preparation of active compound, 1 part by weight of active compound is mixed with the stated amounts of solvent and emulsifier, and the concentrate is diluted with water to the desired concentration.
Vessels are filled with sand, a solution of the active compound, Meloidogyne incognita-egg larvae suspension and lettuce seeds. The lettuice seeds germinate, and the small plants develop. On the roots, galls are formed.
After the desired period of time, the nematicidal action is determined in % by the formation of galls. 100% means that no galls have been found; 0% means that the number of galls on the treated plants corresponds to that of the untreated control.

[2] = system: caterpillars of the army worm (Spodoptera frugiperda); test: Spodoptera frugiperda test; format: in vivo; details: active compound concentration 1000 ppm; dipped cabbage leaves (Brassica oleracea)
Protocol: Spodoptera frugiperda test
Solvent: 31 parts by weight of acetone
as §2, §3
Cabbage leaves (Brassica oleracea) are treated by being dipped into the preparation of active compound of the desired concentration and populated with caterpillars of the army worm (Spodoptera frugiperda) while the leaves are still moist.
After the desired period of time, the kill in % is determined. 100% means that all caterpillars have been killed; 0% means that none of the caterpillars have been killed.

[3] = system: caterpillars of the diamond back moth (Plutella xylostella); test: Plutella test/symptomatology study; format: in vivo; details: 10 μg/larva; 1 μl acetone solution administered to caterpillars
Protocol: Plutella test/symptomatology study
To prepare an advantgeous preparation of active compound, 10 mg of active compound are mixed with 1 ml of solvent.
1 μl of the solution prepared in this manner is administered to caterpillars of the diamond back moth (Plutella xylostella).
After the desired period of time, the kill in % is determined 100% means that all caterpillars have been killed; 0% means that none of the caterpillars have been killed.

Structure (SMILES) | insecticidal activity against silkworms (silkworms) | kill rate [1] | nematicidal action (effect) by the formation of galls (Meloidogyne incognita) | kill rate [2] | kill rate [3]
CC(C)C[C@H]1C(=O)O[C@H](C(C)C)C(=O)N(C)[C@@H](CC(C)C)C(=O)O[C@H](C(C)C)C(=O)N(C)[C@@H](CC(C)C)C(=O)O[C@H](C(C)C)C(=O)N(C)[C@@H](CC(C)C)C(=O)O[C@H](C(C)C)C(=O)N1C [bassianolide] | insecticidal activity |  |  |  | 
CC(C)C[C@H]1C(=O)O[C@H](Cc2ccccc2)C(=O)N(C)[C@@H](CC(C)C)C(=O)O[C@H](C)C(=O)N(C)[C@@H](CC(C)C)C(=O)O[C@H](Cc2ccccc2)C(=O)N(C)[C@@H](CC(C)C)C(=O)O[C@H](C)C(=O)N1C [PF1022A] | insecticidal activity |  |  |  | 
CC(C)C[C@H]1C(=O)O[C@H](Cc2ccc(N3CCOCC3)cc2)C(=O)N(C)[C@@H](CC(C)C)C(=O)O[C@H](C)C(=O)N(C)[C@@H](CC(C)C)C(=O)O[C@H](Cc2ccc(N3CCOCC3)cc2)C(=O)N(C)[C@@H](CC(C)C)C(=O)O[C@H](C)C(=O)N1C [compound of the formula (I)] |  | 100% | 98% | 100% | 100%
